Eight compounds from PMC12684391, “Mechanistic insights into the monotherapy and combination potential of FEN1 inhibition in cancer therapy” (Nucleic Acids Research, 2025) can be followed below.

Common to all, as to assay type: cell-based
The subject of assay [1] is HCT-116, NCI-H460, SUM149PT, MDA-MB-436 cells. Nature of the assay: Combination viability assay (CTG, Bliss synergy). The settings on record: HRP (HCT-116, NCI-H460) and HRD (SUM149PT, MDA-MB-436) cells, 7 days. As to the method: (§1) For combination analysis, cells were seeded in 70 μl of media in 384-well plates pre-dosed with compounds (5-point dose–response matrix) with a D300e digital dispenser (Tecan). Cell proliferation was determined after 7 days using CTG. Analysis was performed with Genedata Screener (Compound Synergy Extension) to determine Synergy scores (Bliss model), using a formulation whereby the Blissexcess is a continuous value and values higher than 2 are usually considered synergistic, and values between 0 and 2 are usually considered additive.

Another assay concerns DLD-1 WT cells. As to the kind of experiment: Combination viability assay (CTG, Bliss synergy). The conditions noted are these: 7 days. As to the method:
as §1

The subject of another assay is DLD-1 BRCA2KO cells. As to the kind of experiment: Combination viability assay (CTG, Bliss synergy). The conditions noted are these: 7 days. On the procedure: For combination analysis, cells were seeded in 70 μl of media in 384-well plates pre-dosed with compounds (5-point dose–response matrix) with a D300e digital dispenser (Tecan). Cell proliferation was determined after 7 days using CTG.

The next assay concerns RD-ES cells. As to the kind of experiment: Combination viability assay (CTG, Bliss synergy). The conditions noted are these: 7 days.
The subject of assay [2] is SUM149PT 53BP1KO and SHLD2KO cells. Nature of the assay: Combination viability assay (CTG, Bliss synergy). The conditions noted are these: SUM149PT with 53BP1 or SHLD2 genetically ablated, 7 days. On the procedure:
as §1

Assay [3] shares this test system. As to the kind of experiment: Cell viability assay (CTG), 7 days, PARP inhibitor resistant models. The conditions noted are these: less sensitive than parental. As to the method:
Cells were seeded in 150 μl of media in 96-well plates or in 70 μl of media in 384-well plates pre-dosed with compounds (8–10 points dose response) with a D300e digital dispenser (Tecan) and incubated for 24 h at 37°C and 5% CO2. Cell proliferation at the end of the assay (7 days) was measured using CTG (Promega, G9243). CTG luminescence was normalized to vehicle treated control for each cell line, and data were fitted with a nonlinear regression curve (four parameters) to generate compound sensitivity curves and determine IC50 or EC50 (half maximal inhibitory/effective concentration) values as indicated.

`COc1ncnc(C2CC2)c1-c1ncc2cnn(Cc3ccc(-c4nc(C(F)(F)F)cn4C(C)C)cc3)c2n1` [KSQ-4279]: in assay [1], the “Combination benefit with MSC778” value is listed as “particularly strong”.

As for `Cc1nc(C)c(Cn2c(=O)n(-c3ncns3)c3cc(S(=O)(=O)NC4(C)CC4)ccc32)s1` [PDD00017238], the “Combination effect with MSC778” value with DLD-1 WT cells was “Synergistic”. Moreover, in assay [1], the “Combination benefit with MSC778” value is on record as “particularly strong”. For the compound `Cn1cncc1-c1c(F)cncc1NC(=O)c1c(N)nn2cc(F)cnc12` [Tuvusertib], the “Combination effect with MSC778” value in the assay on DLD-1 BRCA2KO cells is given as “at best weakly additive”. For the compound `NC(=O)c1cccc2cn(-c3ccc([C@@H]4CCCNC4)cc3)nc12` [niraparib], the “Combination effect with MSC778” value in the assay on RD-ES cells is on record as “combination benefit”.

Take `O=C(c1cc(Cc2n[nH]c(=O)c3ccccc23)ccc1F)N1CCN(C(=O)C2CC2)CC1` [olaparib]: the figures for the “Combination effect with MSC778” value (in assay [2]; with RD-ES cells) were “synergized” and “combination benefit”, respectively.

Regarding `Cn1ncnc1[C@H]1c2n[nH]c(=O)c3cc(F)cc(c23)N[C@@H]1c1ccc(F)cc1` [talazoparib, reference compound], the “Change in sensitivity of SUM149PT 53BP1KO and SHLD2KO cells versus parental cells” value in assay [3] was about 20 fold. Moreover, the “Combination effect with MSC778” value in assay [2] is listed as “synergized”. Turning to `C[C@]1(c2nc3c(C(N)=O)cccc3[nH]2)CCCN1` [veliparib], the “Combination effect with MSC778” value with RD-ES cells is reported as “combination benefit”. As to PDD00017273, the entries for the “Combination effect with MSC778” value with DLD-1 WT cells and with RD-ES cells were “Synergistic” and “limited to additivity”, respectively.
